# BindingDB's records for doi:10.1021/jm034056q (Wyeth Research, 2003)
# Biological target: Beta-lactamase TEM (Escherichia coli) (UniProt P62593)
# Assay: In vitro inhibitory activity against Beta-lactamase TEM-1 of class A enzyme
# Beta-lactamase TEM (Escherichia coli), sequence (P62593 whole entry, looked up): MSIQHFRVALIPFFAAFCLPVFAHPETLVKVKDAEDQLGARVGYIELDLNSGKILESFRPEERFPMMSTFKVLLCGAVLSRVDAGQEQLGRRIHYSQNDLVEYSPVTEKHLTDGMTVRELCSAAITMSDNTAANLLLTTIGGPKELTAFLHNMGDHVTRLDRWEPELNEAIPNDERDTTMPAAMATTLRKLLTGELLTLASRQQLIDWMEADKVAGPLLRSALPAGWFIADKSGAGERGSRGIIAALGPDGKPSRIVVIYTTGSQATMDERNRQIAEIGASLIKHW
row,SMILES,IC50 [µM]
1,"CC1(C)[C@H](C(=O)O)N2C(=O)[C@@]3(C[C@H]3OC3CCCCC3)[C@H]2S1(=O)=O [2'-(cyclohexyloxy)-3,3-dimethyl-7-oxo-4-thia-1-azaspiro[bicyclo[3.2.0]heptane-6,1'-cyclopropane]-2-carboxylic acid 4,4-dioxide]",> 13
2,"CC(C)(C)[Si](C)(C)O[C@H]1C[C@@]12C(=O)N1[C@@H](C(=O)O)C(C)(C)S(=O)(=O)[C@@H]12 [(2R,5R,6R)-2'-(tert-Butyl-dimethyl-silanyl-oxy)-3,3-dimethyl-7-oxo-4-thia-1-azaspiro[bicyclo[3.2.0]heptane-6,1'-cyclopropane]-2-carboxylic acid 4,4-dioxide]",17
3,"CC1(C)[C@H](C(=O)O)N2C(=O)[C@]3(C[C@@H]3OC3CCCCC3)[C@H]2S1(=O)=O [(2S,5R,6R)-2'-(cyclohexyloxy)-3,3-dimethyl-7-oxo-4-thia-1-azaspiro[bicyclo[3.2.0]heptane-6,1'-cyclopropane]-2-carboxylic acid 4,4-dioxide]",0.51
4,"CC(C)(C)[Si](C)(C)O[C@@H]1C[C@@]12C(=O)N1[C@@H](C(=O)O)C(C)(C)S(=O)(=O)[C@@H]12 [(2S,5R,6R)-2'-(tert-Butyl-dimethyl-silanyl-oxy)-3,3-dimethyl-7-oxo-4-thia-1-azaspiro[bicyclo[3.2.0]heptane-6,1'-cyclopropane]-2-carboxylic acid 4,4-dioxide]",12
5,"CC(C)(C)[Si](C)(C)O[C@H]1C[C@]12C(=O)N1[C@@H](C(=O)O)C(C)(C)S(=O)(=O)[C@@H]12 [(2S,5R,6R)-2'-(tert-Butyl-dimethyl-silanyl-oxy)-3,3-dimethyl-7-oxo-4-thia-1-azaspiro[bicyclo[3.2.0]heptane-6,1'-cyclopropane]-2-carboxylic acid 4,4-dioxide]",0.65
6,"CC1(C)[C@H](C(=O)O)N2C(=O)[C@@]3(C[C@@H]3OC3CCCCC3)[C@H]2S1(=O)=O [(2S,5R,6S)-2'-(cyclohexyloxy)-3,3-dimethyl-7-oxo-4-thia-1-azaspiro[bicyclo[3.2.0]heptane-6,1'-cyclopropane]-2-carboxylic acid 4,4-dioxide]",1.7
